Experimental data as given in US5686426A, “Dicarboxymethylated glycolipid derivatives as cell adhesion inhibitors” (Bristol-Myers Squibb Company, priority 1994, dated 1997).

Test system: reverse passive Arthus reaction in rats
Assay: Reverse Passive Arthus Reaction in Rats (RPA)
Assay type: in vivo, Male Sprague Dawley rats
Set-up: key: NS: no significant inhibition at 3 mg
Settings: rat, single IV dose 3 mg, 4 hours; for RPA VP % Inhib. (vascular permeability): 125I-BSA plasma extravasation into skin; for RPA MPO % Inhib. (myeloperoxidase, neutrophil accumulation): skin MPO activity
Excerpt: The reverse passive Arthus reaction in rats is a modification of the method by Mulligan et al., as described in J. Clin. Invest., (1991) 88: 1396-1406. This is an experimental model in which the interaction of antigen-antibody complexes and complement leads to a severe vasculitis that is associated with edema, induration, erythema and hemorrhage. The interaction between the antigen-antibody complexes and complement leads to a localized influx of neutrophils. These neutrophils release a variety of mediators that are associated with tissue damage and vascular permeability. The localized inflammatory reaction is measured using different techniques i.e., vascular permeability and neutrophil influx which is evaluated both biochemically and microscopically.
Male Sprague Dawley specific pathogen-free rats with jugular vein cannulae (280-320 g, Hill Top Labs, Pa.) are used in these studies. Animals are acclimated for at least 1 day and individually housed in stainless steel cages. The dorsal region of the rats is closely clipped 2 days prior to the experiments and divided into 4 sites on each side of the midline. Prior to all injections the rats are sedated with 0.4 ml per 300 gm rat of ketamine/rompun [1000 mg (10 ml) of ketamine HCL is mixed with 40 mg (2.0 ml) Rompun] administered IP and or inhalation anesthesia with metafane (methoxyflurane).
Bovin Serum Albumin (BSA) and rabbit polyclonal IgG rich in anti-BSA are purchased from Sigma Chemical Co. (St. Louis, Mo.). Radiolabelled ^125 I-BSA (spAct 1-5 μCi/μg) is purchased from Dupont NEN (Boston, Mass.).
Each rat is administered intradermal (ID) injection of (0.4 mg, 0.6 mg and 0.8 mg) anti-BSA in a volume of 100 μl per injection in normal saline. The ID injections are randomized near the mid dorsal region on both sides of the back bone. Immediately after the ID injections of the anti-BSA, the rats are administered intravenous (IV) injections of BSA (10 mg in 1.0 ml) in normal saline containing ^125 I labeled BSA (1 μCi/ml BSA or 5.0 μCi/kg body wt) for quantification of dermal vascular injury. Anti-inflammatory agents such as inhibitors of adhesion molecules of the present invention are administered IV at a single dose of 3 mg immediately after BSA. Four (4) hours after the IV injection of BSA, the rats are anesthetized with metafane and 2 to 3 ml of blood is withdrawn via the cannula into an anticoagulant containing (EDTA or Heparin) tube and plasma separated and saved for neutrophil and albumin quantitation. The rats are killed and the skin surrounding the injection site (15 mm diameter) is punched out and weighed. The skin samples and a fixed volume of plasma (0.1 to 1.0 ml) is analyzed in a gamma-counter for ^125 I content. Skin samples from the contralateral side are processed and analyzed for myeloperoxidase activity (MPO) as a measure of neutrophil accumulation. As needed, samples are also processed for histological evaluation of the reacted sites.
Vascular Permeability (VP)
The calculation of the plasma protein exudation into skin is made by determining the radioactivity in the tissue and relating this to the level of radioactive albumin in the blood at the time of sacrifice. […] [formula]
Percent inhibition of the test compound at 3 mg was determined as follows: [formula] Myeloperoxidase (MPO)
MPO is located in the azurophil granules of polymorphonuclear leukocytes (PMN). Because of its abundance in these cells (5% dry weight), this enzyme is used as a marker for tissue neutrophil content. For tissue MPO content, the method of Bradley, et al., was used as described in J. Invest. Dermatol. (1982) 78: 206-209. Biopsies from each treatment group were placed in plastic tubes (15×100 mm) containing 10 ml of 0.5% hexadecyltrimethylammonium bromide (HTAB)in 0.05M potassium phosphate buffer pH 6.0. The tissue was then homogenized with a Brinkmann Polytron homogenizer (10s). […]

SMILES	RPA VP % Inhib. (vascular permeability)	RPA MPO % Inhib. (myeloperoxidase, neutrophil accumulation)
CCCCCCCCCCCCC/C=C/[C@@H](OC(=O)c1ccccc1)[C@H](CO[C@@H]1O[C@H](COCC(=O)O)[C@H](OCC(=O)O)[C@H](OC(=O)c2ccccc2)[C@H]1OC(=O)c1ccccc1)NC(=O)CCCCCCCCCCCCCCC [Example 16, (2S,3R,4E)-2-Hexadecanoylamino-3-benzoyloxy-1-(4,6-di-O-carboxymethyl-2,3-di-O-benzoyl-β-D-galactopyranoside)-4-octadecene]	NS	NS
CCCCCCCCCCCCC/C=C/[C@@H](OC(=O)c1ccccc1)[C@H](CO[C@@H]1O[C@H](COCC(=O)O)[C@H](OCC(=O)O)[C@H](OC(=O)c2ccccc2)[C@H]1O)NC(=O)CCCCCCCCCCCCCCC [Example 18, (2S,3R,4E)-3-Benzoyloxy-2-hexadecanoylamino-1-[3-O-benzoyl-4,6-di-O-carboxymethyl-β-D-galactopyranosyloxy]-4-octadecene]	73.6%	98%
CCCCCC/C=C/[C@@H](OC(=O)c1ccccc1)[C@H](CO[C@H]1O[C@H](COCC(=O)O)[C@H](OCC(=O)O)[C@H](OC(=O)c2ccccc2)[C@H]1OC(=O)c1ccccc1)NC(=O)CCCCCCCCC(=O)OC [Example 8, (2S,3R,4E)-3-Benzoyloxy-2-(9-methoxycarbonyl-nonanoylamino)-1-(2,3-di-O-benzoyl-4,6-di-O-carboxymethyl-α-D-galactopyranosyloxy)-4-undecene]	9%	22%
CCCCCCCCCCCCC/C=C/[C@@H](OC(=O)c1ccccc1)[C@H](CO[C@H]1O[C@H](COCC(=O)O)[C@H](OCC(=O)O)[C@H](OC(=O)c2ccccc2)[C@H]1OC(=O)c1ccccc1)NC(=O)CCCCCCCCCCCCCCC [Example 2, (2S,3R,4E)-3-Benzoyloxy-2-hexadecanoylamino-1-[2,3-di-O-benzoyl-4,6-di-O-carboxymethyl-α-D-galactopyranosyloxy]-4-octadecene]	> 73%	> 99%
CCCCCCCCCCCCC/C=C/[C@@H](OC(=O)c1ccccc1)[C@H](CO[C@H]1O[C@H](COCC(=O)O)[C@H](OCC(=O)O)[C@H](O)[C@H]1OC(=O)c1ccccc1)NC(=O)CCCCCCCCCCCCCCC [Example 14, (2S,3R,4E)-3-Benzoyloxy-2-hexadecanoylamino-1-[2-O-benzoyl-4,6-di-O-carboxymethyl-α-D-galactopyranosyloxy]-4-octadecene]	32%	13%
